Assay results published in patent US7981920B2, “Addition salts of angiotensin-converting enzyme inhibitors with no donor acids, a process for their preparation and pharmaceutical compositions containing them” (Les Laboratoires Servier, priority 2007, dated 2011).
pIC50: −log10 of the molar value.

Legend:
[1] = system: Aorta rings without endothelium; assay: NO donor activity in vitro: relaxation of noradrenaline-contracted aorta rings; format: cell-based; conditions: stable contraction induced by noradrenaline (0.1-0.3 μM), read-out: IC50 (dose that inhibits the maximum effect by 50%), relaxing effect
Protocol: Aorta rings without endothelium are used. After a first contraction induced by 60 mM KCl to characterise the sensitivity of the ring, and washing, a stable contraction is induced by noradrenaline (0.1-0.3 μM) in the presence or absence of a guanylate cyclase inhibitor, ODQ (10 μM). A cumulative concentration series is applied and the activity of the product under test is calculated by an IC50 (dose that inhibits the maximum effect by 50%).

[2] = biological target: T1, Angiotensin 1-Converting Enzyme (Rattus norvegicus, UniProt P47820); assay: Activity inhibiting angiotensin 1-converting enzyme in vivo: hypertensive response to angiotensin I in anaesthetised rats; conditions: dose of 0.1 mg/kg, given 60 minutes prior to anaesthesia, angiotensin I i.v. 1.5 μg/kg
T1 construct: from tissue; host or cells: whole living rat (in vivo; endogenous enzyme)
T1 sequence (P47820 36-1313): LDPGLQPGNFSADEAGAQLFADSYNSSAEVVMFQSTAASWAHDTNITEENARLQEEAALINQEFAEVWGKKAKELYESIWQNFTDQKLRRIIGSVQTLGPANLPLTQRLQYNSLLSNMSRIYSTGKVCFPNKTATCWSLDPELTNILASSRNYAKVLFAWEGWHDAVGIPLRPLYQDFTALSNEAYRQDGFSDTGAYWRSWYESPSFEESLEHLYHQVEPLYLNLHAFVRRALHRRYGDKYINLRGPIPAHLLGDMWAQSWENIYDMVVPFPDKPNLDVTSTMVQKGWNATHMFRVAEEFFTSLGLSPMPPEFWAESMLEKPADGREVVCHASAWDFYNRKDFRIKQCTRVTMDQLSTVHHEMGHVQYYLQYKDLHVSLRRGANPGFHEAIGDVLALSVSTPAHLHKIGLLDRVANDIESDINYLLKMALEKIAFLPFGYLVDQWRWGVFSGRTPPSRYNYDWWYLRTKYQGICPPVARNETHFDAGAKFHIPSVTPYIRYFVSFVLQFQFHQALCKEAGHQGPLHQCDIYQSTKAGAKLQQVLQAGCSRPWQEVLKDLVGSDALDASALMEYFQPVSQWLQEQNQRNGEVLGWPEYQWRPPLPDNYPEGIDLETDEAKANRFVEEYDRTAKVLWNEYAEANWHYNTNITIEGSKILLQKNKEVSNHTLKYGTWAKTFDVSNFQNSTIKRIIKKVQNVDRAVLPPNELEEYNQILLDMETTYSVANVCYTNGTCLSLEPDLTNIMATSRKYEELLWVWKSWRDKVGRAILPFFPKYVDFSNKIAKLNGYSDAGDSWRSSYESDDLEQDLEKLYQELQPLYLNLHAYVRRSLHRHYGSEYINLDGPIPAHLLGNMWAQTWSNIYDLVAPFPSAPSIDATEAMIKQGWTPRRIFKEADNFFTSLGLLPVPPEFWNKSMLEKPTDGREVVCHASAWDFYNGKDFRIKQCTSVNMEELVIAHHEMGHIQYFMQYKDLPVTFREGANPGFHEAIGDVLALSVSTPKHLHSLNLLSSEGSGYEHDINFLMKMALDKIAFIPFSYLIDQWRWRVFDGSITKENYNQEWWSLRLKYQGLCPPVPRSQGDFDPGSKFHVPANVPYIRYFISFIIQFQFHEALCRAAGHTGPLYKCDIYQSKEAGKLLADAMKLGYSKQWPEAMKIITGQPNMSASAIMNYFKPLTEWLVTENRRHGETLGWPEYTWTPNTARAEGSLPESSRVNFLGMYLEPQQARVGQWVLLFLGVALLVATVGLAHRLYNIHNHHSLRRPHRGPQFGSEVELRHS
Protocol: Rats are anaesthetised with pentobarbital and placed under artificial respiration, and the average arterial pressure is measured by a catheter that has been placed in the femoral artery and is connected to a pressure sensor. The vagus nerves are divided into sections and mecamilamine (sympathetic ganglion blocker) is injected i.v. at 1.5 mg/kg. After stabilisation, angiotensin I is injected i.v. at 1.5 μg/kg.
The maximum hypertensive response to angiotensin I is measured in rats that, 60 minutes prior to anaesthesia, have received by the oral route either Senegal gum alone (control group), or the compound under test in Senegal gum. The inhibitory effect is determined as a percentage from the response to angiotensin I compared with the control group.

Substance | pIC50 [1] | angiotensin I inhibition (inhibition of maximum hypertensive response to angiotensin I compared with control group) [2]
(2S,3aS,7aS)-1-[(2S)-2-{[(1S)-1-(Ethoxycarbonyl)-butyl]-amino}-propionyl]-octahydro-1H-indole-2-carboxylic acid-{[(3-{[5-oxido-4-(phenylsulphonyl)-1,2,5-oxadiazol-3-yl]-oxy}-propionyl)-amino]-methyl}-phosphonic acid (1:1) [Example 7] | 7.33 | 88%
(2S)-2-[(3-{[5-Oxido-4-(phenylsulphonyl)-1,2,5-oxadiazol-3-yl]-oxy}-propionyl)-amino]-succinic Acid-(2S,3aS,7aS)-1-[(2S)-2-{[(1S)-1-(ethoxycarbonyl)-butyl]-amino}-propionyl]-octahydro-1H-indole-2-carboxylic Acid (1:1) [Example 1] | 7.32 | 85%
